Source: the Kinase Knowledgebase extract (Sharma et al. 2016)

Experiments:
[1] = molecular target: PIK3CA (human) (UniProt P42336); assay: Enzyme Assay
[2] = molecular target: PIK3CA (human) (UniProt P42336); assay: Assessment of Cell Proliferation in MDA-MB-361.1 Cells; conditions: mda-mb-361
[3] = molecular target: PIK3CA (human) (UniProt P42336); assay: Assessment of Cell Proliferation in PC3 Cells; conditions: pc-3

PIK3CA (human), sequence (P42336 whole entry, looked up): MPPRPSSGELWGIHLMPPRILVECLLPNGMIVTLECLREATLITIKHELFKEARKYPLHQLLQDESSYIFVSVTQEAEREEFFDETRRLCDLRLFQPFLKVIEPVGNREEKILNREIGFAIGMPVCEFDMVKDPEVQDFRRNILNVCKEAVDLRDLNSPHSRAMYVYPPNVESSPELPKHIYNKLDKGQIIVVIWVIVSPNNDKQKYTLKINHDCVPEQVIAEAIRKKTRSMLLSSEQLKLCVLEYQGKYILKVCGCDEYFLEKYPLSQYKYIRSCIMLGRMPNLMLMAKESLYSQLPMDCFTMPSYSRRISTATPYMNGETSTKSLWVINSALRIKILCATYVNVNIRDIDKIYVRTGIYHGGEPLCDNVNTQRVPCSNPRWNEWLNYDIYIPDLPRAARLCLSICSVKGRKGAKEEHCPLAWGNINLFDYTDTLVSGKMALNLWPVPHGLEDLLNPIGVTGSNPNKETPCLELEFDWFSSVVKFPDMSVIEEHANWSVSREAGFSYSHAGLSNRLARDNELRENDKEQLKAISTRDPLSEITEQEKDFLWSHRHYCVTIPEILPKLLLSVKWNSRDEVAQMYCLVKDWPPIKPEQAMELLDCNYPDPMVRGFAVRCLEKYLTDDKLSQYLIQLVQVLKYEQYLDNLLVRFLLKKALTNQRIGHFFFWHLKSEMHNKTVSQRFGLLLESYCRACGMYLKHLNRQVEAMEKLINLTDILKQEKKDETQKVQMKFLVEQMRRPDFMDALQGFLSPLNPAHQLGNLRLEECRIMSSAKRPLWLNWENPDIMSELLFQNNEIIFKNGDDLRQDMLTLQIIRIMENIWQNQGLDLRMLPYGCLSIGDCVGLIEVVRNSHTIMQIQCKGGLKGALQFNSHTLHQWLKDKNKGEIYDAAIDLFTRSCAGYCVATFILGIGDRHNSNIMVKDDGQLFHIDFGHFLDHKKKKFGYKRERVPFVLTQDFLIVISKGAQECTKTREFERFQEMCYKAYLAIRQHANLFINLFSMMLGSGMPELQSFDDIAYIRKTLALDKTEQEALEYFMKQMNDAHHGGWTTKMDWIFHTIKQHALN

Structure (SMILES)	IC50 [1]	EC50 [2]	EC50 [3]
Nc1ncc(-c2nc(N3CCOCC3)c3nc4n(c3n2)CCC4)cn1	8.26 nM		
CC[C@]1(C)OCCn2c1nc1c(N3CCOCC3)nc(-c3cnc(N)nc3)nc12	3.11 nM		
CC1(C)OCCn2c1nc1c(N3CCOCC3)nc(-c3cccc4[nH]ncc34)nc12	19.8 nM		
CC(C)Cn1cc(-c2nc(N3CCOCC3)c3nc4n(c3n2)CCOC4(C)C)cn1		10000 nM	10000 nM
Nc1ccc(-c2nc(N3CCOCC3)c3nc4n(c3n2)CCCC4)cn1	50.7 nM		
CC1(C)OCCn2c1nc1c(N3CCOCC3)nc(-c3cncc(C(N)=O)c3)nc12	35.2 nM		
CC1=COC(C)(C)c2nc3c(N4CCOCC4)nc(-c4cnc(N)nc4)nc3n21	4.73 nM		
Nc1cc(C(F)(F)F)c(-c2nc(N3CCOCC3)c3nc4n(c3n2)CCOC4)cn1	11.2 nM		
CC1(C)OCCn2c1nc1c(N3CCOCC3)nc(-c3cnc4[nH]ccc4c3)nc12	14 nM		
CC1(C)OCCc2c1sc1c(N3CCOCC3)nc(-c3cnc(N)nc3)nc21	1 nM	237 nM	215 nM
Oc1cccc(-c2nc(N3CCOCC3)c3nc4n(c3n2)CCOC4C(F)(F)F)c1 (centres undefined)	79.7 nM	920 nM	1100 nM
CC(C)NC(=O)Nc1ccc(-c2nc(N3CCOCC3)c3nc4n(c3n2)CCOC4(C)C)cc1	337 nM	1200 nM	1300 nM
CC1(C)OCCn2c1nc1c(N3CCOCC3)nc(-c3cnc(N)cc3C(F)(F)F)nc12	3.89 nM		
CC1(C)CN(c2nc(-c3cnc(N)nc3)nc3c2nc2n3CCOC2(C)C)CCO1	201 nM	1500 nM	1400 nM
Nc1ncc(-c2nc(N3CCOCC3)c3nc4n(c3n2)CCOC4)cn1	4.32 nM		
CC1(C)OCCn2c1nc1c(N3CCOCC3)nc(-c3ccc(N)nc3)nc12	18.6 nM		
CC[C@@]1(C)OCCn2c1nc1c(N3CCOCC3)nc(-c3cnc(N)nc3)nc12	5.96 nM		
CC(=O)Nc1ccc(-c2nc(N3CCOCC3)c3nc4n(c3n2)CCOC4(C)C)cn1	49 nM		
CN1CCn2c(nc3c(N4CCOCC4)nc(-c4cnc(N)nc4)nc32)C1=O	21.5 nM		
CC1(C)OCCn2c1nc1c(N3CCOCC3)nc(-c3cccc(O)c3)nc12	4.58 nM		
CC1(C)OCCn2c1cc1c(N3CCOCC3)nc(-c3cnc(N)nc3)nc12	0.831 nM	94 nM	185 nM
CC1(C)CCn2c(nc3c(N4CCOCC4)nc(-c4cnc(N)nc4)nc32)O1	5.09 nM	958 nM	1800 nM
CC1(C)OCCn2c1nc1c(N3CCOCC3)nc(-c3ccccc3NS(C)(=O)=O)nc12	638 nM		

Structure (SMILES)	IC50 [1]	EC50 [2]	EC50 [3]
CC(=O)Nc1ncc(-c2nc(N3CCOCC3)c3nc4n(c3n2)CCOC4(C)C)cn1	242 nM		
Nc1ncc(-c2nc(N3CCOCC3)c3nc4n(c3n2)CCCO4)cn1	6.84 nM		
Nc1ccc(-c2nc(N3CCOCC3)c3nc4n(c3n2)CCOC4C(F)(F)F)cn1 (centres undefined)	45.2 nM		
CC1(C)OCCn2c1nc1c(N3CCOCC3)nc(-c3cn[nH]c3)nc12	382 nM		
CC1(C)OCCn2c1nc1c(N3CCOCC3)nc(-c3ccnc(N)c3)nc12	685 nM		
C[C@@H]1CN(c2nc(-c3cnc(N)nc3)nc3c2nc2n3CCOC2(C)C)C[C@H](C)O1	14 nM	3100 nM	3800 nM
Nc1ncc(-c2nc(N3CCOCC3)c3nc4n(c3n2)CCCC4)cn1	3.88 nM		
CC1c2nc3c(N4CCOCC4)nc(-c4cnc(N)nc4)nc3n2CCN1C (centres undefined)	6.89 nM	889 nM	1900 nM
CC1(C)OCCn2c1nc1c(N3CCOCC3)nc(-c3ccc(N)cn3)nc12		10000 nM	10000 nM
Nc1ncc(-c2nc(N3CCOCC3)c3nc4n(c3n2)CCC2(CC2)O4)cn1	1.37 nM		
Nc1ncc(-c2nc(N3CCOCC3)c3nc4n(c3n2)CCOC42COC2)cn1	2.45 nM		
Nc1ncc(-c2nc(N3CCOCC3)c3nc4n(c3n2)CCO[C@H]4C(F)(F)F)cn1	3.57 nM	424 nM	697 nM
CCNC(=O)Nc1ccc(-c2nc(N3CCOCC3)c3c(n2)C2(C)CCOC2N3C)cc1 (centres undefined)	2100 nM	315 nM	208 nM
CC1NC(=O)Cn2c1nc1c(N3CCOCC3)nc(-c3cnc(N)nc3)nc12 (centres undefined)	4.28 nM		
Nc1ncc(-c2nc(N3CCOCC3)c3c(n2)N2CCC[C@H]2CO3)cn1	77.9 nM	3200 nM	2000 nM
CC1(C)OCCn2c1nc1c(N3CCOCC3)nc(-c3ccc(N)cc3)nc12	541 nM		
CN(C)c1cnc(-c2nc(N3CCOCC3)c3nc4n(c3n2)CCOC4(C)C)cn1		10000 nM	10000 nM
FC(F)(F)C1OCCn2c1nc1c(N3CCOCC3)nc(-c3cccc4[nH]ncc34)nc12 (centres undefined)	45.2 nM	4400 nM	6900 nM
CNC(=O)Nc1ccc(-c2nc(N3CCOCC3)c3nc4n(c3n2)CCOC4(C)C)cc1	6.71 nM		
Nc1ncc(-c2nc(N3CCOCC3)c3nc4n(c3n2)CCO[C@@H]4C(F)(F)F)cn1	3.45 nM		
CCNC(=O)Nc1ccc(-c2nc(N3CCOCC3)c3nc4n(c3n2)CCOC4(C)C)cc1	41.7 nM		
CC1(C)OCCn2c1nc1c(N3C[C@@H]4C[C@H]3CO4)nc(-c3cnc(N)nc3)nc12	394 nM	3400 nM	3600 nM
